Assay results published in patent publication US12129235B2, “TSPO binders” (The University Court of the University of Glasgow, priority 2018, dated 2024).

Key:
[1] = Radiometabolite and arterial blood analysis; type: in vivo, rats; details: rat; 120 minutes post-injection
Protocol: In a separate set of experiments (radiometabolite studies), the femoral artery was cannulated for blood sampling and the radiotracer was administered i.v. via tail vein. Surgical cannulation of femoral vein and artery was performed as follows: polyethylene catheters (PE50) filled with heparinized saline (20 IU/mL) were inserted into the left femoral artery or vein with the help of a stereomicroscope and securely fastened with ligatures (6-0 silk thread). Catheters were held in place with surgical glue. Body temperature was maintained by heated scanner bed or heated mat and monitored by rectal thermometer. Vital signs, including heart rate and respiration rate were monitored continuously during the experiments.
Arterial blood samples were collected at 2, 5, 10, 20, 30, 60 and 120 minutes post-radiotracer administration (69.8±9.2 MBq, n=17 rats). […] Following blood collection, all samples were kept on ice until analyzed. Radioactivity in whole blood and plasma was assessed using a well-type γ-counter using a 400-1400 keV window (Perkin Elmer Wizzard2, USA). Plasma samples (400 μL) were processed by acetonitrile denaturation and analyzed by HPLC (Ultimate2000, ThermoFisher, UK) on a Luna C18(2) column (Luna C18(2), 10×250 mm, 10 μm, Phenomenex, UK) with a mobile phase of acetonitrile/water 70/30 at a flow rate of 4 mL/min to estimate the parent fraction. […]

TSPO [2] = molecular target: TSPO (Rattus norvegicus, UniProt P16257); assay: ^18F-LW223 PET kinetic modelling and test-retest in rats; type: in vivo; parameters: from tissue; host or cells: living Sprague-Dawley rats (brain, heart, lungs and other organs); details: for VT: baseline, Logan modelling; for VT / Distribution volume ratio (DVR) relative to blood pool: mean±SEM, n=3
Protocol: All experiments were conducted in accordance with the local University of Edinburgh animal ethics committee and were authorized by the Home Office under the Animals (Scientific Procedures) Act 1986. 28 adult male Sprague-Dawley rats (357.1±8.1 g and 10.2±0.4 weeks), and 2 C57bl/6 (25.3±3.7 g and 10.1±0.0 weeks) were used for this study, with 2 C57bl/6 (26.0±5.3 g and 13.5±5.7 weeks) used in an additional study. The animals were housed under standard 12 h light:12 h dark conditions with food and water available ad libitum. On the day of the experiment, anesthesia was induced and maintained with 1.5-2.5% isoflurane (50/50 oxygen/nitrous oxide, 1 L/min). For imaging experiments, an intravenous (i.v.) line was established in the femoral vein or tail vein for injection of the radiotracer and the femoral artery was cannulated to allow automated blood sample collection, as previously described (Warnock et al.).
13 PET scans were performed with ^18F-LW223 (mean injected radioactivity of 19.55±2.1 MBq). Scans were acquired following i.v. bolus injection of ^18F-LW223 via tail vein or femoral vein shunt (invasive kinetic modelling experiments with β-probe automatic blood sampler) in rats. Test-retest scans were obtained in three rats following i.v. bolus of the radiotracer, with two weeks interval between test and retest imaging sessions. […] These scans were compared to baseline scans where no PK11195 was used. For displacement studies, rats received i.v. administration of ^18F-LW223 and scanned continuously for 120 min. […] A male and female mouse were initially used to derive the dosimetry estimates for ^18F-LW223 over a 4 h dynamic scan, followed by additional mice in a further study (in a study with a mean injected radioactivity of 10.83±5.6 MBq).
A commercially available β-probe system (Twilite2, Swisstrace, Switzerland) was used for the measurement of blood radioactivity as previously described (Warnock et al.). […] With data acquired in separate studies (radiometabolite experiments), the whole-blood arterial input function measured by the automatic blood sampler was corrected for the plasma-to-whole blood ratio and for metabolism in vivo.
All PET data were acquired using a preclinical PET/CT small animal scanner (nanoPET/CT, Mediso, Hungary). A CT scan (semi-circular full trajectory, maximum field of view, 480 projections, 50 kVp, 300 ms and 1:4 binning) was acquired for attenuation correction. Immediately following radiotracer administration, a 120 minutes emission scan was obtained using 3-dimentional 1:5 mode and re-binned as follows: 18×10 s; 2×30 s; 1×60 s; 2×2 min; 10×5 min; 6×10 min. PET images were reconstructed using Mediso's iterative Tera-Tomo 3D reconstruction algorithm and the following settings: 4 iterations, 6 subsets, full detector model, low regularization, spike filter on, voxel size 0.4 mm and 400-600 keV energy window. PET data were corrected for randoms, scatter and attenuation.
Image Processing and Data Analysis Reconstructed scans were imported into PMOD 3.8 software (PMOD Technologies, Switzerland). Volumes of interest (VOIs) were manually drawn around organs of interest. Time-activity curves (TACs) were generated and standardized uptake values (SUVs) calculated as concentration in the VOI divided by injected dose divided by animal weight. Kinetic modelling was performed using compartmental analysis (1-Tissue (1T) and 2-Tissue (2T) models) and graphical analysis (Logan plot and Ichise multivariate analysis) to estimate the volume of distribution (VT) in different tissues (Innis et al.; Logan; and Ichise et al.). Model fitting performance was evaluated using the Akaike information criterion (AIC) and the model selection criterion (MSC), where the preferred model had the lowest AIC and highest MSC. The selected identifiability criterion was the percentage standard error (% SE) of VT estimates. […]

TSPO [3] = molecular target: TSPO (Homo sapiens, UniProt P30536); assay: ^18F-LW223 human autoradiography (stroke and diseased coronary tissue); type: binding; parameters: Paraffin embedded human deep brain stoke tissue and diseased coronary tissue sections; from tissue; host or cells: human deep brain stroke tissue and diseased coronary tissue sections
Source text: Slides were washed twice with buffer before being air dried and exposed to a Fujifilm BAS-IP MS 2040 phosphor screen (Fujifilm, Japan). Phosphor screens were imaged on a Fujifilm FLA5100 imaging plate reader (Fujifilm, Japan). Global regions of interest were drawn around whole tissue sections to calculate % SB. To calculate target:non-target ratios, regional sampling analysis was used within the same tissue in the highest and lowest uptake areas.

Chain of TSPO (Homo sapiens, UniProt P30536) (P30536 whole entry): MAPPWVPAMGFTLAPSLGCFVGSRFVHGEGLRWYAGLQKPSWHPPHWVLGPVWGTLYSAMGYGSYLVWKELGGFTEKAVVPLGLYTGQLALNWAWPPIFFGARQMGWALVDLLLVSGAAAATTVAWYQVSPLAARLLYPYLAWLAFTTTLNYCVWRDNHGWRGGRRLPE

For CC[C@@H](C)N(C)C(=O)c1nc2ccccc2c(-c2ccccc2)c1C[18F] [^18F-LW223, (R)-(N-sec-Butyl)-3-[19-fluoro]-methyl-N-methyl-4-phenylquinoline-2-carboxamide], the “parent in arterial blood” value [1] was “approximately 70%”, the “test-retest inter-subject variability of DVR” value (TSPO [2]; brain) was 16% and the VT (TSPO [2]; brain) was 1.46. The “Distribution volume ratio (DVR) relative to blood pool” value (TSPO [2]; brain) was 0.53±0.06, the “test-retest inter-subject variability of DVR” value (TSPO [2]; heart) was 2% and the VT (TSPO [2]; heart) was 9.48±0.03. For the same compound, the “Distribution volume ratio (DVR) relative to blood pool” value (TSPO [2]; heart) was 2.96±0.14, the “test-retest inter-subject variability of DVR” value (TSPO [2]; lungs) was 15% and the VT (TSPO [2]; lungs) was 5.13±0.29. The “Distribution volume ratio (DVR) relative to blood pool” value (TSPO [2]; lungs) was 1.84±0.13, the “blocking of ^18F-LW223 binding” value (TSPO [3]; deep brain stroke tissue, blocking with PK11195 30 μM) was “could not be sufficiently blocked” and the “target:non-target ratio” value (TSPO [3]; diseased coronary tissue) was 4.5. The “% specific binding (% SB)” value (TSPO [3]; diseased coronary tissue, blocking with LW223 10 μM) was 88.1±3.4%, the “% specific binding (% SB)” value (TSPO [3]; diseased coronary tissue, blocking with PK11195 10 μM) was 75.3±3.2% and the “target:non-target ratio” value (TSPO [3]; stroke tissue) was 7.5. For the same compound, the “% specific binding (% SB)” value (TSPO [3]; stroke tissue, blocking with LW223 10 μM) was 42.5±7.0%.
